Activity calls are given as the source filed them. No cut-off for these calls is given here.
How the values were obtained:
K562 = test: Cytotoxicity against human K562 cells assessed as growth inhibition after 24 hrs by MTT assay; type: functional, cell-based; conditions: K562, 24 h
HCT-116 = test: Induction of apoptosis in human HCT116 assessed as increase in caspase-3 activity at 120 uM incubated for 48 hrs followed by DEVD-pNA substrate addition by caspase-3 colorimetric assay; type: functional
MDA-MB-231 = test: Induction of apoptosis in human MDA231 assessed as increase in caspase-3 activity at 120 uM incubated for 48 hrs followed by DEVD-pNA substrate addition by caspase-3 colorimetric assay; type: functional

SMILES: O=C(c1ccccc1)c1cccc(NC(=O)c2cc3ccccc3[nH]2)c1
- IC50 (K562): > 100 µM

SMILES: O=C(Nc1cccc(C(O)c2ccccc2)c1)c1cc2ccccc2[nH]1 (stereo not given)
- Activity (HCT-116): Active
- IC50 (K562): > 100 µM
- Activity (MDA-MB-231): Active

SMILES: CC(O)c1cccc(NC(=O)c2cc3ccccc3[nH]2)c1 (stereo not given)
- IC50 (K562): > 100 µM

SMILES: CC(O)c1ccc(NC(=O)c2cc3ccccc3[nH]2)cc1 (stereo not given)
- IC50 (K562): > 100 µM

SMILES: CC(=O)c1cccc(NC(=O)c2cc3ccccc3[nH]2)c1
- IC50 (K562): > 100 µM

SMILES: CC(=O)c1ccc(NC(=O)c2cc3ccccc3[nH]2)cc1
- IC50 (K562): > 100 µM

SMILES: O=C(c1ccccc1)c1ccc(NC(=O)c2cc3ccccc3[nH]2)cc1
- IC50 (K562): > 100 µM

SMILES: O=C(Nc1ccc(C(O)c2ccccc2)cc1)c1cc2ccccc2[nH]1 (stereo not given)
- IC50 (K562): > 100 µM

Source: ChEMBL document CHEMBL3797044, “Computer-aided design, synthesis, and biological evaluation of new indole-2-carboxamide derivatives as PI3Kα/EGFR inhibitors” (Bioorg Med Chem Lett, 2016)
